In US9464064B2, “HCV helicase inhibitors and methods of use thereof” (University of Kansas, priority 2011, dated 2016):
Where two headings read alike, the source gives them in different places.

Assays:
[1] = system: HCV RLuc subgenomic replicon (genotype 1b) in Huh-7.5 cells; experiment: HCV subgenomic replicon assay (Renilla luciferase); assay type: cell-based, hepatitis C virus
From the text: An HCV Renilla luciferase reporter construct (HCV RLuc; Huang, et al. (2006) Hepatology 43:81-90) was used to measure the effect of each compound on cellular HCV RNA levels. In HCV RLuc, the HCV internal ribosome entry site (IRES) drives the translation of the neomycin and Renilla luciferase genes while the HCV nonstructural proteins (NS3 to NS5B) are translated from the Encephalomyocarditis virus IRES (Huang, et al. (2006) supra). The plasmid DNA was cleaved with ScaI, purified by phenol/chloroform extraction followed by ethanol precipitation, and used as template for RNA transcription using […] T7 RNA transcription kit (Ambion, Austin, Tex.). The RNA transcripts were treated with 2 U DNase I (Ambion) at 37° C. for 30 minutes, purified by acid phenol/chloroform extraction, followed by isopropanol precipitation, and suspended in diethylpyrocarbonate-treated water. RNA concentration was determined by spectrophotometry by measuring the A260. RNA integrity and size was checked on 1% agarose gel. Transcribed RNA was stored in aliquots at −80° C. until needed.
Huh-7.5 cells were transfected with HCV RNA by electroporation. Briefly, subconfluent Huh7.5 cells were trypsinized, suspended in complete growth medium, and centrifuged at 1,000×g for 5 minutes at 4° C. The cell pellets were then washed twice with ice-cold phosphate-buffered saline (PBS) and suspended at 1.75×10^7 cells/mL in ice-cold PBS. Replicon RNA (5 μg) was mixed with 0.4 mL of cell suspension and transferred to 2 mm gap width electroporation cuvette (EPPENDORF AG, Germany) and pulsed 5 times for 99 μsec at 820 V over 1.1 sec intervals using the ECM 830 electroporator instrument (BTX Harvard Apparatus, Holliston, Mass.). After a 5 minute recovery period at room temperature, cells were transferred to 10 ml complete growth medium, and seeded into 10 cm diameter cell culture dishes. Twenty-four hours after transfection, the medium was replaced with fresh complete DMEM supplemented with 1 mg/ml geneticin (Invitrogen) and the medium was replaced every three to four days with fresh medium containing 1 mg/mL geneticin. Geneticin-resistant colonies were selected for a period of two weeks and expanded in the presence of 250 μg/mL geneticin.
HCV RLuc replicon cells were seeded at a density of 10×10^3 cells per well in 96-well plates and incubated for 4-5 hours to allow the cells to attach to the plate. The compounds dissolved in dimethyl sulfoxide (DMSO) were added at a final concentration of 10 μM (DMSO solvent final concentration was 0.5%) and the cells were incubated for 72 hours at 37° C. under 5% CO2 atmosphere. The effects of compounds on HCV replication were then assessed by measuring the Renilla luciferase activity in compound-treated versus DMSO-treated cells. At the end of the incubation period, the medium was aspirated and the cells were washed with 1×PBS. The Renilla luciferase reporter gene assay was performed using the Renilla luciferase assay kit (PROMEGA, Madison, Wis.) according to the manufacturer's instructions. Briefly, the cells were lysed by addition of 50 μL of 1× Renilla luciferase lysis buffer followed by two cycles of freeze/thaw. The luciferase activity content of the lysate was measured with a FLUOSTAR Omega microplate reader instrument (BMG Labtech, Germany) after injecting 50 μL of luciferase substrate and reading for 5 seconds.
To determine if the above identified compounds might be useful as HCV antiviral agents, they were added to cells harboring HCV subgenomic RNA replicon. The HCV replicon chosen was derived from the same HCV strain (genotype 1b) as the NS3 protein used for screening and enzyme assays. […] 75:4614-4624; Blight, et al. (2002) J. Virol. 76:13001-13014). […]

[2] = biological target: T1, E. coli SSB-Cy5-dT15 complex (Escherichia coli, UniProt P0AGE0); experiment: Escherichia coli SSB Cy5-dT15 binding assay (fluorescence polarization); conditions: for IC50: disruption of Cy5-dT15-SSB complex, read-out: Cy5-dT15-SSB Binding IC50; for inhibition at 100 µM: read-out: SSB % Displaced @ 100 μM; for EC50: read-out: SSB EC50
T1 construct: purchased Promega
T1 sequence (P0AGE0 2-178, one chain of several): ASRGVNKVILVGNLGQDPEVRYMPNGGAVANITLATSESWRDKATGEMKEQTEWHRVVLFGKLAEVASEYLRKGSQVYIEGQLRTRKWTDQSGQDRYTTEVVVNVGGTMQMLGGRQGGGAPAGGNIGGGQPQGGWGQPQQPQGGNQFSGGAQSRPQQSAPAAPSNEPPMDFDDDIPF
Outline: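 Compounds in DMSO (final 1% for screening, 5% for IC50 determination) added to MOPS pH 7.5 buffer with MgCl2, BSA, Tween 20 and DTT containing 20 nM SSB and 5 nM Cy5-dT15 probe. Displacement followed by polarization at 667 nm after 635 nm excitation.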

[3] = system: MBHA DNA substrate; experiment: Modified FID assay, SYBR Green I; assay type: binding; conditions: for DNA binding (%): SYBR Green I-FID, average (±SD) percent bound at 100 μM
Outline: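 Affinity for the MBHA DNA substrate (0.32 μM) estimated by displacement of SYBR Green I (0.68 μM), ethidium bromide omitted. Each compound titrated in triplicate over three independent runs; EC50 from concentration-response fit, reported ± standard deviation.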

[4] = Hepatitis C virus, Huh7.5, 10 μM compound, triplicate, average ± SD, read-out: HCV replication (% Inh.)
[5] = Hepatitis C virus, Huh7.5, 10 μM, read-out: Replicon (% Inhibition @ 10 μM)
[6] = SYBR Green, read-out: FID (SG) EC50 (converted)

| SMILES | inhibition at 10 µM [1, 4] [%] | inhibition at 10 µM [1, 5] [%] | EC50 ([1]; Hepatitis C virus, Huh7.5, HCV Rluc subgenomic replicon cells, read-out: concentration needed to reduce replicon-encoded luciferase by 50%) [µM] | combination of compound 24 and telaprevir on replicon expression ([1]; Rluc subgenomic HCV replicon cells) | loss of HCV replicon Rluc activity ([1]; elevated concentrations (>10 μM)) | IC50 [2] [µM] | inhibition at 100 µM [2] [%] | EC50 [2] [µM] | DNA binding (%) [3] [%] | FID (SG) % Displaced @ 100 μM ([3]; SYBR Green) [%] | EC50 [3, 6] [µM] | EC50 ([3]; FID, mean ± SD, read-out: DNA Binding (SYBR Green I) EC50) [µM] |
| --- | --- | --- | --- | --- | --- | --- | --- | --- | --- | --- | --- | --- |
| Cc1ccc2nc(-c3ccc4nc(-c5ccc(NC(=O)c6cc(C(F)(F)F)cc(C(F)(F)F)c6)cc5)sc4c3)sc2c1S(=O)(=O)O [Compound 24, 2′-(4-(3,5-bis(trifluoromethyl)benzamido)phenyl)-6-methyl-[2,6′-bibenzo[d]thiazole]-7-sulfonic acid] | 60 ± 4 | 60 ± 4 | 5 ± 2 | No synergy | more than 90% | 36 ± 7 | 73 | 36 ± 7 | 43 ± 13 | 43 ± 13 | 86 ± 210 |  |
| Cc1ccc2nc(-c3ccc4nc(-c5ccc(NC(=O)c6ccc(CNC(=O)OCC7c8ccccc8-c8ccccc87)cc6)cc5)sc4c3)sc2c1S(=O)(=O)O.N [Compound 41] |  | 48 ± 18 |  |  |  | 57 ± 16 | 59 | 57 |  | 53 ± 25 | 56 |  |
| Cc1ccc2nc(-c3ccc(NC(=O)c4ccc(NC(=O)c5ccc(NC(=O)OCC6c7ccccc7-c7ccccc76)cc5)cc4)cc3)sc2c1S(=O)(=O)O.N [Compound 51] |  | -14 ± 26 |  |  |  | 7 ± 3 |  | 7 |  | 22 | > 100 |  |
| Cc1ccc2nc(-c3ccc4nc(-c5ccc(NC(=O)c6cccnc6)cc5)sc4c3)sc2c1S(=O)(=O)O [Compound 31, 6-methyl-2′-(4-(nicotinamido)phenyl)-[2,6′-bibenzo[d]thiazole]-7-sulfonic acid] | 51 ± 22 | 51 ± 22 |  |  |  | 173 ± 354 | 48 | > 100 | 15 ± 10 | 15 ± 10 | > 100 |  |
| Cc1ccc2nc(-c3ccc4nc(-c5ccc(NC(=O)c6cc(F)cc(C(F)(F)F)c6)cc5)sc4c3)sc2c1S(=O)(=O)O [Compound 27, 2′-(4-(3-fluoro-5-(trifluoromethyl)benzamido)phenyl)-6-methyl-[2,6′-bibenzo[d]thiazole]-7-sulfonic acid] | 51 ± 9 | 51 ± 9 |  |  |  |  | 23 | > 100 | 48 ± 17 | 48 ± 17 | > 100 |  |
| Cc1ccc2nc(-c3ccc4nc(-c5ccc(NCc6ccccc6)cc5)sc4c3)sc2c1S(=O)(=O)O [Compound 53] |  | -64 ± 25 |  |  |  | 5 ± 1 | 102 | 5 |  | 92 ± 4 | 27 |  |
| Cc1ccc2nc(-c3ccc4nc(-c5ccc(NC(=O)Nc6ccccc6)cc5)sc4c3)sc2c1S(=O)(=O)O.N [Compound 52] |  | -18 ± 56 |  |  |  | 6 ± 1 | 95 | 6 |  | 46 ± 2 | > 100 |  |
| Cc1ccc2nc(-c3ccc4nc(-c5ccc(NC(=O)c6cc(F)ccc6C(F)(F)F)cc5)sc4c3)sc2c1S(=O)(=O)O [Compound 26, 2′-(4-(5-fluoro-2-(trifluoromethyl)benzamido)phenyl)-6-methyl-[2,6′-bibenzo[d]thiazole]-7-sulfonic acid] | 61 ± 14 | 61 ± 14 |  |  |  | 14 ± 2 | 95 | 14 ± 2 | 35 ± 21 | 35 ± 21 | > 100 |  |
| Cc1ccc2nc(-c3ccc4nc(-c5ccc(NC(=O)Nc6ccc(F)cc6)cc5)sc4c3)sc2c1S(=O)(=O)O.N [Compound 48] |  | 17 ± 25 |  |  |  | 11 ± 2 | 100 | 11 |  | 58 ± 3 | 74 |  |
| Cc1ccc2nc(-c3ccc4nc(-c5ccc(NC(=O)c6ccc(Br)cc6)cc5)sc4c3)sc2c1S(=O)(=O)O [Compound 15, 2′-(4-(4-bromobenzamido)phenyl)-6-methyl-[2,6′-bibenzo[d]thiazole]-7-sulfonic acid] | 7 ± 18 | 7 ± 18 |  |  |  | 27 ± 6 | 91 | 27 ± 6 | 70 ± 9 | 70 ± 9 | 30 ± 13 |  |
| Cc1ccc(NC(=O)Nc2ccc(-c3nc4ccc(-c5nc6ccc(C)c(S(=O)(=O)O)c6s5)cc4s3)cc2)cc1 [Compound 28, 6-methyl-2′-(4-(3-(p-tolyl)ureido)phenyl)-[2,6′-bibenzo[d]thiazole]-7-sulfonic acid] | 43 ± 9 | 43 ± 9 |  |  |  | 10 ± 3 | 96 | 10 | 90 ± 9 | 90 ± 9 | 18 | 13 |
| Cc1ccc2nc(-c3ccc4nc(-c5ccc(NC(=O)c6cccc(C(F)(F)F)c6F)cc5)sc4c3)sc2c1S(=O)(=O)O [Compound 22, 2′-(4-(2-fluoro-3-(trifluoromethyl)benzamido)phenyl)-6-methyl-[2,6′-bibenzo[d]thiazole]-7-sulfonic acid] | 48 ± 18 | 48 ± 18 |  |  |  | 71 ± 13 | 63 | 71 ± 13 | 49 ± 27 | 49 ± 27 | > 100 |  |
| Cc1ccc2nc(-c3ccc(NC(=O)c4ccc(NC(=O)c5ccc(C(F)(F)F)cc5)cc4)cc3)sc2c1S(=O)(=O)O.N [Compound 44] |  | 4 ± 8 |  |  |  | 23 ± 6 | 86 | 23 |  | 41 ± 2 | > 100 |  |
| Cc1ccc2nc(-c3ccc4nc(-c5ccc(N(C)C(=O)c6ccc7ccccc7c6)cc5)sc4c3)sc2c1S(=O)(=O)O [Compound 34, 6-methyl-2′-(4-(N-methyl-2-naphthamido)phenyl)-[2,6′-bibenzo[d]thiazole]-7-sulfonic acid] | -30 ± 30 | 24 ± 32 |  |  |  | 9 ± 2 | 105 | 9 | 35 ± 23 | 35 ± 23 | > 100 |  |
| CC(=O)Nc1ccc(-c2nc3ccc(-c4nc5ccc(C)c(S(=O)(=O)O)c5s4)cc3s2)cc1 [Compound 30, 2′-(4-acetamidophenyl)-6-methyl-[2,6′-bibenzo[d]thiazole]-7-sulfonic acid] | 1 ± 12 | 26 ± 21 |  |  |  | 17 ± 4 | 89 | 17 | 48 ± 5 | 48 ± 5 | > 100 |  |
